Drawing on PubChem BioAssay AID1208 (EPA DSSTox, 2008), this text covers outcome for two compounds.

This data set deals with rat chronic carcinogenicity bioassay, TD50. Description: DSSTox (CPDBAS) Carcinogenic Potency Database Summary Rat Bioassay Results. To be noted: TD50_Rat_Note: no positive results; TargetSites_Rat_Female: no positive results. In short, it runs like this:
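Chronic long-term rat cancer bioassays from literature and NCI/NTP, taking the most positive result per sex. TD50 in mmol converted to a 1–100 Activity Score from log10(1/TD50). Mixtures lacking TD50 scored 50.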

Activity calls are given as the source filed them.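 The calls were made as follows: active = at least one rat sex group has a carcinogenic potency value and tumor site recorded; inconclusive = only rat studies were judged inadequate by the national testing program; inactive = no potency or tumor site, with negative rat experiments.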

Consider `CCCCNC(N)=O`, for which the outcome was “inactive; no positive results”.

With `O=NN1C[C@H](O)C[C@H]1C(=O)O`, the outcome was “inactive; no positive results”.
